Experimental findings from patent US20190119348A1, “PARATHYROID HORMONE RECEPTOR 1 ANTAGONIST AND INVERSE AGONIST POLYPEPTIDES AND METHODS OF THEIR USE” (The General Hospital Corporation, priority 2016, published 2019) are described below.

The target of this assay is T1, endogenous hPTHR1 (Homo sapiens, UniProt Q03431).
T1 construct: Saos-2, in which is endogenously expressed the hPTHR1; endogenous in cells
T1 sequence (Q03431 27-593): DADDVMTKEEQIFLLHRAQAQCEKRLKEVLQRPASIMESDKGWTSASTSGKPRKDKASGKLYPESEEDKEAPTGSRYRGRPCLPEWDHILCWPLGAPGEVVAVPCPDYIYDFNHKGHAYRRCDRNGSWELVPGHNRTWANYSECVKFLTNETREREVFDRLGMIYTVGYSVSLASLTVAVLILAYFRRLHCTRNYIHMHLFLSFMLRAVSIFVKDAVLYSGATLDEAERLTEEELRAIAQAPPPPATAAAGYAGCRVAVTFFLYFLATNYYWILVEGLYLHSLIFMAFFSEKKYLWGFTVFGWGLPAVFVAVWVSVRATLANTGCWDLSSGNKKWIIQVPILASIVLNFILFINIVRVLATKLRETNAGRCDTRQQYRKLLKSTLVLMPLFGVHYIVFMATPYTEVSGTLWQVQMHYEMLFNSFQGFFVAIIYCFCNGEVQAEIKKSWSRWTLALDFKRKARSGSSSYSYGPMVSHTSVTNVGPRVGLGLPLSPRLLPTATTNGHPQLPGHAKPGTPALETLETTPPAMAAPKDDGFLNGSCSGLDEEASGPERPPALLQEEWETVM
The assay can be described thus: Antagonism of PTH(1-34)- and PTHrP(1-36)-induced cAMP response (GloSensor) in SGS-72 cells. Format: cell-based. An outline of the steps:
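SaOS2-derived SGS-72 cells, which express endogenous hPTHR1 and a stable GloSensor cAMP reporter, were loaded with 0.5 mM luciferin for 15 min at room temperature in CO2-independent medium with 0.1% BSA. Antagonist was tested against PTH(1-34) or PTHrP(1-36), with luminescence taken at the agonist-alone maximum; pIC50 came from four-parameter fits.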

The mark [1] stands for this setting: IC50 PTH(1-34) (Table 6, nanomolar value), antagonist pre-treatment 15 minutes, PTH(1-34) 0.3 nM.

Where two headings read alike, the source gives them in different places. Where a SMILES comes first, the peptide text is derived from it. [ ]: non-standard residue; d: D form. Nle = CCCC[C@H](N)C(=O)O

`CC[C@H](C)[C@H](N)C(=O)N[C@@H](CCC(N)=O)C(=O)N[C@@H](CC(C)C)C(=O)N[C@@H](CCSC)C(=O)N[C@@H](Cc1c[nH]cn1)C(=O)N[C@@H](CCC(N)=O)C(=O)N[C@@H](CCCNC(=N)N)C(=O)N[C@H](Cc1c[nH]c2ccccc12)C(=O)N[C@@H](CCCCN)C(=O)N[C@@H](Cc1c[nH]c2ccccc12)C(=O)N[C@H](C(=O)N[C@@H](CCC(N)=O)C(=O)N[C@@H](CC(=O)O)C(=O)N[C@@H](C)C(=O)N[C@@H](CCCNC(=N)N)C(=O)N[C@@H](CCCNC(=N)N)C(=O)N[C@@H](CCCNC(=N)N)C(=O)N[C@@H](C)C(=O)N[C@@H](Cc1c[nH]c2ccccc12)C(=O)N[C@@H](CC(C)C)C(=O)N[C@@H](Cc1c[nH]cn1)C(=O)N[C@@H](CCCCN)C(=O)N[C@@H](CC(C)C)C(=O)N[C@H](C(=O)N[C@@H](C)C(=O)N[C@@H](CCC(=O)O)C(=O)N[C@H](C(=O)N[C@@H](Cc1c[nH]cn1)C(=O)N[C@H](C(=O)N[C@@H](C)C(=O)N[C@@H](CCC(=O)O)C(=O)N[C@H](C(N)=O)[C@@H](C)CC)[C@@H](C)O)[C@@H](C)CC)[C@@H](C)CC)[C@@H](C)CC` [compound 1949, dW12, W23-LA-PTH(5-36)] (H-IQLMHQR[dW]KWIQDARRRAWLHKLIAEIHTAEI-NH2; N-terminus assumed): the IC50 under setting [1] was found to be 1.45 nM; the IC50 (antagonist pre-treatment 10 minutes, PTHrP(1-36) 0.3 nM, seven experiments, read-out: corresponding nanomolar value vs. PTHrP(1-36) (Table 5)) was 1 nM; the IC50 (antagonist pre-treatment 10 minutes, PTHrP(1-36) 0.3 nM, seven experiments, read-out: pIC50 vs. PTHrP(1-36) (Table 5) (converted)) was 0.794 nM; the IC50 (antagonist pre-treatment 15 minutes, PTHrP(1-36) 0.3 nM, read-out: IC50 PTHrP(1-36) (Table 6, nanomolar value)) was determined as 1.21 nM; the IC50 (corresponding nanomolar value vs. PTH(1-34) (Table 5), antagonist pre-treatment 10 minutes, PTH(1-34) 0.3 nM, seven experiments) was 1 nM; the IC50 (pIC50 vs. PTH(1-34) (Table 5), antagonist pre-treatment 10 minutes, PTH(1-34) 0.3 nM, seven experiments) was 0.776 nM.

As to `CC[C@H](C)[C@H](NC(=O)[C@H](CCC(=O)O)NC(=O)[C@H](C)NC(=O)[C@@H](NC(=O)[C@H](Cc1c[nH]cn1)NC(=O)[C@@H](NC(=O)[C@H](CCC(=O)O)NC(=O)[C@H](C)NC(=O)[C@@H](NC(=O)[C@H](CC(C)C)NC(=O)[C@H](CCCCN)NC(=O)[C@H](Cc1c[nH]cn1)NC(=O)[C@H](CC(C)C)NC(=O)[C@H](Cc1c[nH]c2ccccc12)NC(=O)[C@H](C)NC(=O)[C@H](CCCNC(=N)N)NC(=O)[C@H](CCCNC(=N)N)NC(=O)[C@H](CCCNC(=N)N)NC(=O)[C@H](C)NC(=O)[C@H](CC(=O)O)NC(=O)[C@H](CCC(N)=O)NC(=O)[C@@H](NC(=O)[C@H](Cc1c[nH]c2ccccc12)NC(=O)[C@H](CCCCN)NC(=O)[C@@H](Cc1c[nH]c2ccccc12)NC(=O)[C@H](CCCNC(=N)N)NC(=O)[C@H](CCC(N)=O)NC(=O)[C@H](Cc1c[nH]cn1)NC(=O)[C@H](CCSC)NC(=O)[C@@H](N)CC(C)C)[C@@H](C)CC)[C@@H](C)CC)[C@@H](C)CC)[C@@H](C)O)C(N)=O` [compound 1990, dW12, W23-LA-PTH(7-36)-1990] (H-LMHQR[dW]KWIQDARRRAWLHKLIAEIHTAEI-NH2; N-terminus assumed), the IC50 under setting [1] was determined as 1.23 nM.

With `CCCC[C@H](NC(=O)[C@@H](N)CC(C)C)C(=O)N[C@@H](Cc1c[nH]cn1)C(=O)N[C@@H](CCC(N)=O)C(=O)N[C@@H](CCCNC(=N)N)C(=O)N[C@H](Cc1c[nH]c2ccccc12)C(=O)N[C@@H](CCCCN)C(=O)N[C@@H](Cc1c[nH]c2ccccc12)C(=O)N[C@H](C(=O)N[C@@H](CCC(N)=O)C(=O)N[C@@H](CC(=O)O)C(=O)N[C@@H](C)C(=O)N[C@@H](CCCNC(=N)N)C(=O)N[C@@H](CCCNC(=N)N)C(=O)N[C@@H](CCCNC(=N)N)C(=O)N[C@@H](C)C(=O)N[C@@H](Cc1c[nH]c2ccccc12)C(=O)N[C@@H](CC(C)C)C(=O)N[C@@H](Cc1c[nH]cn1)C(=O)N[C@@H](CCCCN)C(=O)N[C@@H](CC(C)C)C(=O)N[C@H](C(=O)N[C@@H](C)C(=O)N[C@@H](CCC(=O)O)C(=O)N[C@H](C(=O)N[C@@H](Cc1c[nH]cn1)C(=O)N[C@H](C(=O)N[C@@H](C)C(=O)N[C@@H](CCC(=O)O)C(=O)N[C@H](C(N)=O)[C@@H](C)CC)[C@@H](C)O)[C@@H](C)CC)[C@@H](C)CC)[C@@H](C)CC` [compound 1992, Nle8, dW12, W23-LA-PTH(7-36)-1992] (H-L[Nle]HQR[dW]KWIQDARRRAWLHKLIAEIHTAEI-NH2; N-terminus assumed), the IC50 under setting [1] worked out at 1.55 nM.

In the case of `CCCC[C@H](NC(=O)[C@@H](N)CC(C)C)C(=O)N[C@@H](Cc1c[nH]cn1)C(=O)N[C@@H](CCC(N)=O)C(=O)N[C@@H](CC(C)C)C(=O)N[C@H](Cc1c[nH]c2ccccc12)C(=O)N[C@@H](CCCCN)C(=O)N[C@@H](Cc1c[nH]c2ccccc12)C(=O)N[C@H](C(=O)N[C@@H](CCC(N)=O)C(=O)N[C@@H](CC(=O)O)C(=O)N[C@@H](C)C(=O)N[C@@H](CCCNC(=N)N)C(=O)N[C@@H](CCCNC(=N)N)C(=O)N[C@@H](CCCNC(=N)N)C(=O)N[C@@H](C)C(=O)N[C@@H](Cc1c[nH]c2ccccc12)C(=O)N[C@@H](CC(C)C)C(=O)N[C@@H](Cc1c[nH]cn1)C(=O)N[C@@H](CCCCN)C(=O)N[C@@H](CC(C)C)C(=O)N[C@H](C(=O)N[C@@H](C)C(=O)N[C@@H](CCC(=O)O)C(=O)N[C@H](C(=O)N[C@@H](Cc1c[nH]cn1)C(=O)N[C@H](C(=O)N[C@@H](C)C(=O)N[C@@H](CCC(=O)O)C(=O)N[C@H](C(N)=O)[C@@H](C)CC)[C@@H](C)O)[C@@H](C)CC)[C@@H](C)CC)[C@@H](C)CC` [compound 1997, Nle8,L11, dW12, W23-LA-PTH(7-36)-1997] (H-L[Nle]HQL[dW]KWIQDARRRAWLHKLIAEIHTAEI-NH2; N-terminus assumed), under setting [1], the IC50 came out at 2.1 nM.

For `CCCC[C@H](NC(=O)[C@H](CC(C)C)NC(=O)[C@H](CCC(N)=O)NC(=O)[C@@H](N)[C@@H](C)CC)C(=O)N[C@@H](Cc1c[nH]cn1)C(=O)N[C@@H](CCC(N)=O)C(=O)N[C@@H](CC(C)C)C(=O)N[C@H](Cc1c[nH]c2ccccc12)C(=O)N[C@@H](CCCCN)C(=O)N[C@@H](Cc1c[nH]c2ccccc12)C(=O)N[C@H](C(=O)N[C@@H](CCC(N)=O)C(=O)N[C@@H](CC(=O)O)C(=O)N[C@@H](C)C(=O)N[C@@H](CCCNC(=N)N)C(=O)N[C@@H](CCCNC(=N)N)C(=O)N[C@@H](CCCNC(=N)N)C(=O)N[C@@H](C)C(=O)N[C@@H](Cc1c[nH]c2ccccc12)C(=O)N[C@@H](CC(C)C)C(=O)N[C@@H](Cc1c[nH]cn1)C(=O)N[C@@H](CCCCN)C(=O)N[C@@H](CC(C)C)C(=O)N[C@H](C(=O)N[C@@H](C)C(=O)N[C@@H](CCC(=O)O)C(=O)N[C@H](C(=O)N[C@@H](Cc1c[nH]cn1)C(=O)N[C@H](C(=O)N[C@@H](C)C(=O)N[C@@H](CCC(=O)O)C(=O)N[C@H](C(N)=O)[C@@H](C)CC)[C@@H](C)O)[C@@H](C)CC)[C@@H](C)CC)[C@@H](C)CC` [compound 1999, Nle8, L11, dW12, W23-LA-PTH(5-36)-1999] (H-IQL[Nle]HQL[dW]KWIQDARRRAWLHKLIAEIHTAEI-NH2; N-terminus assumed), under setting [1], the IC50 came out at 2.75 nM.

On to `CC[C@H](C)[C@H](NC(=O)[C@H](CCC(=O)O)NC(=O)[C@H](C)NC(=O)[C@@H](NC(=O)[C@H](Cc1c[nH]cn1)NC(=O)[C@@H](NC(=O)[C@H](CCC(=O)O)NC(=O)[C@H](C)NC(=O)[C@@H](NC(=O)[C@H](CC(C)C)NC(=O)[C@H](CCCCN)NC(=O)[C@H](Cc1c[nH]cn1)NC(=O)[C@H](CC(C)C)NC(=O)[C@H](Cc1c[nH]c2ccccc12)NC(=O)[C@H](C)NC(=O)[C@H](CCCNC(=N)N)NC(=O)[C@H](CCCNC(=N)N)NC(=O)[C@H](CCCNC(=N)N)NC(=O)[C@H](C)NC(=O)[C@H](CC(=O)O)NC(=O)[C@H](CCC(N)=O)NC(=O)[C@@H](NC(=O)[C@H](Cc1c[nH]c2ccccc12)NC(=O)[C@H](CCCCN)NC(=O)[C@@H](Cc1c[nH]c2ccccc12)NC(=O)[C@H](CC(C)C)NC(=O)[C@H](CCC(N)=O)NC(=O)[C@H](Cc1c[nH]cn1)NC(=O)[C@H](CCSC)NC(=O)[C@@H](N)CC(C)C)[C@@H](C)CC)[C@@H](C)CC)[C@@H](C)CC)[C@@H](C)O)C(N)=O` [compound 2001, L11, dW12, W23-LA-PTH(7-36)-2001] (H-LMHQL[dW]KWIQDARRRAWLHKLIAEIHTAEI-NH2; N-terminus assumed), for which, under setting [1], the IC50 is 2.08 nM.
